# Test results as given in US20260071239A1, “COMPOSITIONS AND METHODS FOR IMPROVED CELL CULTURE EFFICIENCY” (Amyris, Inc., priority 2022, published 2026).
# Test system: host cells
# Test: Inhibition of host cells by myrcene during fermentation
# Format: cell-based
# Details: host cells in fermentation; read-out: IC50 (inhibitory to host cells)
smiles,measurement,value
"C=CC(=C)CCC=C(C)C [Myrcene, myrcene]",IC50,50 to 100 µg/mL
